Reference: the supplement of paper PMC10307832

Assays:
Assay in all cases: relative viability (nuclei count vs DMSO), 5 days (fraction); higher = more cells survive
PC-3 [JPC-3] = tested on: PC-3 [JPC-3]
Outline: (§1)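 Lung cancer cell lines were pin-tool dosed in 1536-well plates on the day after seeding, with either a lone drug or a fixed anchor-drug dose plus five library-drug doses (not always all listed) in √10 steps. Nuclei were counted on 4× images after 5 days. Relative viability is the ratio of treated-well to vehicle-well nuclei counts, with each value a median of duplicate plates.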

HCC-15 = tested on: HCC-15
Outline: as §1

UMC-11 = tested on: UMC-11
Outline: as §1

LC-2-ad = tested on: LC-2-ad
Outline: as §1

ChaGo-K-1 = tested on: ChaGo-K-1
Outline: as §1

NCI-H2087 = tested on: NCI-H2087
Outline: as §1

NCI-H838 = tested on: NCI-H838
Outline: as §1

H3255 = tested on: H3255
Outline: as §1

NCI-H1666 = tested on: NCI-H1666
Outline: as §1

NCI-H661 = tested on: NCI-H661
Outline: as §1

LXF-289 = tested on: LXF-289
Outline: as §1

LK-2 = tested on: LK-2
Outline: as §1

NCI-H650 = tested on: NCI-H650
Outline: as §1

NCI-H358 = tested on: NCI-H358
Outline: as §1

LCLC-97TM1 = tested on: LCLC-97TM1
Outline: as §1

NCI-H1651 = tested on: NCI-H1651
Outline: as §1

NCI-H596 = tested on: NCI-H596
Outline: as §1

SK-MES-1 = tested on: SK-MES-1
Outline: as §1

BEN = tested on: BEN
Outline: as §1

NCI-H322M = tested on: NCI-H322M
Outline: as §1

NCI-H1944 = tested on: NCI-H1944
Outline: as §1

HCC-78 = tested on: HCC-78
Outline: as §1

LU99A = tested on: LU99A
Outline: as §1

For `C[C@@H]1CN(CC(=O)Nc2ccc3c(c2)Cc2cccc(-c4cc(=O)cc(N5CCOCC5)o4)c2S3)C[C@H](C)O1` + CS(=O)(=O)N1CCN(Cc2cc3nc(-c4cccc5[nH]ncc45)nc(N4CCOCC4)c3s2)CC1 [Pictilisib] (partner 1 µM), which relative viability (PC-3 [JPC-3]; first compound 0.04 µM) is on record?
Its relative viability is 0.714.

And the relative viability (PC-3 [JPC-3]; first compound 0.1265 µM)?
Its relative viability is 0.724.

And the relative viability (PC-3 [JPC-3]; first compound 0.4 µM)?
Its relative viability is 0.801.

What about the relative viability (PC-3 [JPC-3]; first compound 4 µM) of the same compound?
Its relative viability is 0.669.

What about the relative viability (HCC-15; first compound 0.04 µM) of the same compound?
The relative viability was 0.815.

And the relative viability (HCC-15; first compound 0.1265 µM)?
Its relative viability is 0.649.

And the relative viability (HCC-15; first compound 0.4 µM)?
Its relative viability is 0.796.

What about the relative viability (HCC-15; first compound 4 µM) of the same compound?
The relative viability was 0.636.

What about the relative viability (UMC-11; first compound 0.04 µM) of the same compound?
Its relative viability is 0.769.

And the relative viability (UMC-11; first compound 0.1265 µM)?
Its relative viability is 0.791.

And the relative viability (UMC-11; first compound 0.4 µM)?
The relative viability was 0.75.

What about the relative viability (UMC-11; first compound 4 µM) of the same compound?
Its relative viability is 0.649.

What about the relative viability (LC-2-ad; first compound 0.04 µM) of the same compound?
Its relative viability is 1.12.

What about the relative viability (LC-2-ad; first compound 0.1265 µM) of the same compound?
Its relative viability is 0.43.

And the relative viability (LC-2-ad; first compound 0.4 µM)?
The relative viability was 0.29.

What about the relative viability (LC-2-ad; first compound 4 µM) of the same compound?
The relative viability was 0.537.

And the relative viability (ChaGo-K-1; first compound 0.1265 µM)?
The relative viability was 0.633.

What about the relative viability (ChaGo-K-1; first compound 0.4 µM) of the same compound?
Its relative viability is 0.577.

What about the relative viability (ChaGo-K-1; first compound 4 µM) of the same compound?
The relative viability was 0.686.

What about the relative viability (NCI-H2087; first compound 0.04 µM) of the same compound?
Its relative viability is 1.05.

And the relative viability (NCI-H2087; first compound 0.1265 µM)?
The relative viability was 0.806.

And the relative viability (NCI-H2087; first compound 0.4 µM)?
The relative viability was 1.02.

And the relative viability (NCI-H2087; first compound 4 µM)?
The relative viability was 0.541.

What about the relative viability (NCI-H838; first compound 0.04 µM) of the same compound?
Its relative viability is 0.472.

And the relative viability (NCI-H838; first compound 0.1265 µM)?
Its relative viability is 0.402.

What about the relative viability (NCI-H838; first compound 0.4 µM) of the same compound?
The relative viability was 0.451.

What about the relative viability (NCI-H838; first compound 4 µM) of the same compound?
Its relative viability is 0.29.

And the relative viability (H3255; first compound 0.04 µM)?
The relative viability was 0.483.

What about the relative viability (H3255; first compound 0.1265 µM) of the same compound?
The relative viability was 0.535.

What about the relative viability (H3255; first compound 0.4 µM) of the same compound?
The relative viability was 0.452.

What about the relative viability (H3255; first compound 4 µM) of the same compound?
Its relative viability is 0.446.

And the relative viability (NCI-H1666; first compound 0.04 µM)?
The relative viability was 0.444.

And the relative viability (NCI-H1666; first compound 0.1265 µM)?
Its relative viability is 0.298.

And the relative viability (NCI-H1666; first compound 0.4 µM)?
Its relative viability is 0.439.

And the relative viability (NCI-H1666; first compound 4 µM)?
Its relative viability is 0.29.

And the relative viability (NCI-H661; first compound 0.04 µM)?
Its relative viability is 0.408.

And the relative viability (NCI-H661; first compound 0.1265 µM)?
Its relative viability is 0.381.

What about the relative viability (NCI-H661; first compound 0.4 µM) of the same compound?
Its relative viability is 0.381.

And the relative viability (NCI-H661; first compound 4 µM)?
The relative viability was 0.448.

What about the relative viability (LXF-289; first compound 0.04 µM) of the same compound?
Its relative viability is 0.852.

What about the relative viability (LXF-289; first compound 0.1265 µM) of the same compound?
Its relative viability is 0.789.

What about the relative viability (LXF-289; first compound 0.4 µM) of the same compound?
Its relative viability is 0.78.

And the relative viability (LXF-289; first compound 4 µM)?
The relative viability was 0.792.

What about the relative viability (LK-2; first compound 0.1265 µM) of the same compound?
The relative viability was 0.634.

What about the relative viability (LK-2; first compound 0.4 µM) of the same compound?
The relative viability was 0.607.

What about the relative viability (LK-2; first compound 4 µM) of the same compound?
Its relative viability is 0.667.

And the relative viability (NCI-H650; first compound 0.04 µM)?
Its relative viability is 0.828.

What about the relative viability (NCI-H650; first compound 0.1265 µM) of the same compound?
Its relative viability is 0.886.

And the relative viability (NCI-H650; first compound 0.4 µM)?
The relative viability was 0.89.

And the relative viability (NCI-H650; first compound 4 µM)?
Its relative viability is 0.806.

And the relative viability (NCI-H358; first compound 0.04 µM)?
Its relative viability is 0.355.

And the relative viability (NCI-H358; first compound 0.1265 µM)?
The relative viability was 0.343.

What about the relative viability (NCI-H358; first compound 0.4 µM) of the same compound?
The relative viability was 0.3.

What about the relative viability (NCI-H358; first compound 4 µM) of the same compound?
Its relative viability is 0.247.

What about the relative viability (LCLC-97TM1; first compound 0.1265 µM) of the same compound?
Its relative viability is 0.191.

What about the relative viability (LCLC-97TM1; first compound 0.4 µM) of the same compound?
The relative viability was 0.144.

What about the relative viability (LCLC-97TM1; first compound 4 µM) of the same compound?
The relative viability was 0.18.

What about the relative viability (NCI-H1651; first compound 0.04 µM) of the same compound?
Its relative viability is 0.59.

What about the relative viability (NCI-H1651; first compound 0.1265 µM) of the same compound?
The relative viability was 0.491.

What about the relative viability (NCI-H1651; first compound 0.4 µM) of the same compound?
Its relative viability is 0.612.

What about the relative viability (NCI-H1651; first compound 4 µM) of the same compound?
Its relative viability is 0.568.

And the relative viability (NCI-H596; first compound 0.04 µM)?
Its relative viability is 0.386.

And the relative viability (NCI-H596; first compound 0.1265 µM)?
Its relative viability is 0.417.

What about the relative viability (NCI-H596; first compound 0.4 µM) of the same compound?
Its relative viability is 0.404.

What about the relative viability (NCI-H596; first compound 4 µM) of the same compound?
The relative viability was 0.41.

And the relative viability (SK-MES-1; first compound 0.04 µM)?
The relative viability was 0.381.

And the relative viability (SK-MES-1; first compound 0.1265 µM)?
Its relative viability is 0.377.

And the relative viability (SK-MES-1; first compound 0.4 µM)?
The relative viability was 0.356.

What about the relative viability (SK-MES-1; first compound 4 µM) of the same compound?
The relative viability was 0.355.

What about the relative viability (BEN; first compound 0.04 µM) of the same compound?
Its relative viability is 0.556.

And the relative viability (BEN; first compound 0.1265 µM)?
The relative viability was 0.537.

What about the relative viability (BEN; first compound 0.4 µM) of the same compound?
Its relative viability is 0.601.

And the relative viability (BEN; first compound 4 µM)?
The relative viability was 0.513.

What about the relative viability (NCI-H322M; first compound 0.04 µM) of the same compound?
The relative viability was 0.365.

What about the relative viability (NCI-H322M; first compound 0.1265 µM) of the same compound?
The relative viability was 0.506.

What about the relative viability (NCI-H322M; first compound 0.4 µM) of the same compound?
Its relative viability is 0.452.

What about the relative viability (NCI-H322M; first compound 4 µM) of the same compound?
The relative viability was 0.565.

What about the relative viability (NCI-H1944; first compound 0.1265 µM) of the same compound?
The relative viability was 0.328.

What about the relative viability (NCI-H1944; first compound 0.4 µM) of the same compound?
Its relative viability is 0.336.

And the relative viability (NCI-H1944; first compound 4 µM)?
Its relative viability is 0.33.

And the relative viability (HCC-78; first compound 0.04 µM)?
Its relative viability is 0.208.

What about the relative viability (HCC-78; first compound 0.1265 µM) of the same compound?
Its relative viability is 0.2.

What about the relative viability (HCC-78; first compound 0.4 µM) of the same compound?
Its relative viability is 0.168.

What about the relative viability (HCC-78; first compound 4 µM) of the same compound?
Its relative viability is 0.265.

And the relative viability (LU99A; first compound 0.04 µM)?
The relative viability was 0.313.

What about the relative viability (LU99A; first compound 0.1265 µM) of the same compound?
The relative viability was 0.382.

And the relative viability (LU99A; first compound 0.4 µM)?
The relative viability was 0.349.

And the relative viability (LU99A; first compound 4 µM)?
Its relative viability is 0.378.
